Measured values from patent US20240390438A1, “PROBIOTICS SEPARATED FROM RABBIT FECES AND FOOD CONTAINING PROBIOTICS” (AGENT Innovation Co., Ltd., priority 2021, published 2024).
Converted amounts (≈) assume the structure as drawn.

Experiments:
L. pl 24-2L = conditions: from Georgieva et al., 2015; cited from earlier work
L. plantarum 299 = conditions: from Klarin et al., 2019; cited from earlier work
species L. plantarum = conditions: EFSA (2005); cited from earlier work
Colony LP19 = assay: Antibiotic susceptibility test; type: cell-based, Lactiplantibacillus Plantarum; conditions: for MIC: Lactiplantibacillus plantarum, LP19, 24 h, read-out: Minimum inhibitory concentration of the antibiotic to LP19, 96-well, 37 C 24 h, OD600
Source text: (§1) To test bacterial susceptibility to antibiotics, such as Aminoglycosides antibiotics, Sulfonamide antibiotics, Quinolone antibiotics, Ampicillin, Cefotaxime, Chloramphenicol, Erythromycin, Rifampicin and Tetracycline, the experimental protocol were as follow. Further, the Quinolone antibiotics comprise Ciprofloxacin, the Aminoglycosides antibiotics comprise Kanamycin and […], and the Sulfonamide antibiotics comprise Sulfamethoxazole. […] The initial absorbance at 600 nm (OD600) of each well was recorded. Then, the 96-well plates were placed at 37° C. and cultured for 24 hours. Next, the OD600 of each well was measured again to determine minimum inhibitory concentration.

Colony PTA22 = assay: Antibiotic susceptibility test; type: cell-based, Lactiplantibacillus Plantarum; conditions: for MIC: Lactiplantibacillus plantarum, PTA22, 24 h, read-out: Minimum inhibitory concentration of the antibiotic to PTA22, 96-well, 37 C 24 h, OD600
Source text: as §1

Colony LP1 = assay: Antibiotic susceptibility test; type: cell-based, Lactiplantibacillus Plantarum; conditions: for MIC: Lactiplantibacillus plantarum, LP1, 24 h, read-out: Minimum inhibitory concentration of the antibiotic to LP1, 96-well, 37 C 24 h, OD600
Source text: as §1

Colony LP2 = assay: Antibiotic susceptibility test; type: cell-based, Lactiplantibacillus Plantarum; conditions: 96-well, 37 C 24 h, OD600; for MIC: Lactiplantibacillus plantarum, LP2, 24 h, read-out: Minimum inhibitory concentration of the antibiotic to LP2
Source text: as §1

Colony LP5 = assay: Antibiotic susceptibility test; type: cell-based, Lactiplantibacillus Plantarum; conditions: for MIC: Lactiplantibacillus plantarum, LP5, 24 h, read-out: Minimum inhibitory concentration of the antibiotic to LP5, 96-well, 37 C 24 h, OD600
Source text: as §1

L. pl 24-5D = conditions: from Georgieva et al., 2015; cited from earlier work
L. plantarum 299v = conditions: from Klarin et al., 2019; cited from earlier work
Klebsiella pneumoniae [1] = assay: Agar diffusion method-2 (cell-free solution); type: cell-based; conditions: colonies as cell-free solution in holes of TSA; ddH2O control 8
Experimental: (§2) Firstly, the CFSs (containing metabolites) were prepared. Besides, when probiotics break down fiber and convert the fiber into metabolites, the metabolites are postbiotics.
(§3) Next, the pathogenic bacteria described above were also cultured with 37° C. until the concentration thereof reached 1×10^8 CFU/mL, respectively. 100 μL bacterial solutions of the pathogenic bacteria described above were evenly plated on Tryptone Soy Agar (TSA) and stay for 10 minutes. Then, tips were used to form several holes in the TSA. Subsequently, 100 μL bacterial solutions of the colonies described above were added into the holes and then cultured at 37° C. for 12 hours.
(§4) This experiment is designed that the CFSs in the holes prevent the pathogenic bacteria on the plates from growing. Therefore, the larger zone indicates the better antibacterial effect.

Shigella sonnei [2] = assay: Agar diffusion method-2 (cell-free solution); type: cell-based; conditions: colonies as cell-free solution in holes of TSA; ddH2O control 8
Experimental: as §2, §3, §4

Salmonella enterica [3] = assay: Agar diffusion method-2 (cell-free solution); type: cell-based; conditions: colonies as cell-free solution in holes of TSA; ddH2O control 8
Experimental: as §2, §3, §4

Bacillus cereus [4] = assay: Agar diffusion method-2 (cell-free solution); type: cell-based; conditions: colonies as cell-free solution in holes of TSA; ddH2O control 8
Experimental: as §2, §3, §4

Escherichia coli (ETEC) [5] = assay: Agar diffusion method-2 (cell-free solution); type: cell-based; conditions: colonies as cell-free solution in holes of TSA; ddH2O control 8
Experimental: as §2, §3, §4

Streptococcus pneumoniae [6] = assay: Agar diffusion method-2 (cell-free solution); type: cell-based; conditions: colonies as cell-free solution in holes of TSA; ddH2O control 8
Experimental: as §2, §3, §4

Pseudomonas aeruginosa [7] = assay: Agar diffusion method-2 (cell-free solution); type: cell-based; conditions: colonies as cell-free solution in holes of TSA; ddH2O control 8
Experimental: as §2, §3, §4

Shigella sonnei [8] = assay: Minimum inhibitory concentration and minimum bacterial concentration; type: cell-based; conditions: antibiotics; for MIC: 37 C 24 h, OD600; for MBC: plated on nutrient agar 48-72 h
Experimental: (§5) Minimum inhibitory concentration (MIC) refers to the minimum concentration at which the development of bacteria can be blocked and antibacterial resistance can be observed after cultured. The lower MIC means the better effect on bacteria.
(§6) The supernatants of the cultured colonies described above were collected, as cell-free solutions (CFSs), by centrifuge at 5000 rpm after cultured the colonies in a nutrient broth and shaking at 37° C. for 48 hours.
(§7) Next, 100 μL each of the CFSs and 100 μL bacterial solutions of the pathogenic bacteria were respectively added to each well of a 96-well plate. Thus, the total volume in each well was 200 μL. The tested pathogenic bacteria included Salmonella enterica, Shigella sonnei, Klebsiella pneumoniae, Streptococcus pneumoniae, Bacillus cereus, Staphylococcus aureus, Pseudomonas aeruginosa, and Escherichia coli.
(§8) As well, 100 μL each of the nutrient broth containing Ampicillin or Kanamycin and 100 μL bacterial solutions of the pathogenic bacteria were respectively added to each well of a 96-well plate. Thus, the total volume in each well was 200 μL.
(§9) Then, initial values of OD600 in each well were recorded. Subsequently, the 96-well plates were cultured at 37° C. for 24 hours, and the OD600 values thereof were re-recorded for determining the MICs of each colony described above.
(§10) Finally, 100 μL CFSs of the next three concentrations […] MIC were taken to be plated on nutrient agar and then cultured at 37° C. for 48-72 hours. The concentrations of the CFSs that no colonies grown on nutrient agar were determined to be the minimum bacterial concentration (MBCs).

Staphylococcus aureus [9] = assay: as above; type: cell-based; conditions: antibiotics; for MIC: 37 C 24 h, OD600; for MBC: plated on nutrient agar 48-72 h
Experimental: as §5, §6, §7, §8, §9, §10

Salmonella enterica [10] = assay: as above; type: cell-based
Experimental: Finally, 100 μL CFSs of the next three concentrations below MIC were taken to be plated on nutrient agar and then cultured at 37° C. for 48-72 hours. The concentrations of the CFSs that no colonies grown on nutrient agar were determined to be the minimum bacterial concentration (MBCs).

Staphylococcus aureus [11] = assay: Agar diffusion method-2 (cell-free solution); type: cell-based; conditions: colonies as cell-free solution in holes of TSA; ddH2O control 8
Experimental: as §2, §3, §4

Klebsiella pneumoniae [12] = assay: Minimum inhibitory concentration and minimum bacterial concentration; type: cell-based; conditions: antibiotics
Experimental: as §5, §6, §7, §8, §9, §10

Bacillus cereus [13] = assay: as above; type: cell-based; conditions: antibiotics
Experimental: as §5, §6, §7, §8, §9, §10

Escherichia coli (ETEC) [14] = assay: as above; type: cell-based; conditions: antibiotics
Experimental: as §5, §6, §7, §8, §9, §10

Streptococcus pneumoniae [15] = assay: as above; type: cell-based; conditions: antibiotics
Experimental: as §5, §6, §7, §8, §9, §10

Pseudomonas aeruginosa [16] = assay: as above; type: cell-based; conditions: antibiotics
Experimental: as §5, §6, §7, §8, §9, §10

[17] = plated on nutrient agar 48-72 h

Compound: CC1(C)S[C@@H]2[C@H](NC(=O)[C@H](N)c3ccccc3)C(=O)N2[C@H]1C(=O)O [Ampicillin]
- Minimum inhibitory concentration of the antibiotic to L. pl 24-2L (L. pl 24-2L): 0.38 µg/mL
- Minimum inhibitory concentration of the antibiotic to L. plantarum 299 (L. plantarum 299): 0.094 µg/mL
- EFSA, MIC breakpoints species L. plantarum (species L. plantarum): 4 µg/mL
- MIC (Colony LP19): 0.25 µg/mL (≈ 0.715 µM)
- MIC (Colony PTA22): 0.5 µg/mL (≈ 1.43 µM)
- MIC (Colony LP1): 0.125 µg/mL (≈ 0.358 µM)
- MIC (Colony LP2): 0.25 µg/mL (≈ 0.715 µM)
- MIC (Colony LP5): 0.25 µg/mL (≈ 0.715 µM)
- Minimum inhibitory concentration of the antibiotic to L. pl 24-5D (L. pl 24-5D): 1 µg/mL
- Minimum inhibitory concentration of the antibiotic to L. plantarum 299v (L. plantarum 299v): 0.094 µg/mL
- Inhibitory zone, Klebsiella Pneumoniae (Klebsiella pneumoniae [1]): 8 mm
- Inhibitory zone, Shigella Sonnei (Shigella sonnei [2]): 12 mm
- Inhibitory zone, Salmonella Enterica (Salmonella enterica [3]): 8 mm
- Inhibitory zone, Bacillus Cereus (Bacillus cereus [4]): 8 mm
- Inhibitory zone, Escherichia coli (ETEC) (Escherichia coli (ETEC) [5]): 8 mm
- Inhibitory zone, Streptococcus Pneumoniae (Streptococcus pneumoniae [6]): 8 mm
- Inhibitory zone, Pseudomonas Aeruginosa (Pseudomonas aeruginosa [7]): 8 mm
- MIC (Shigella sonnei [8]): 8 µg/mL (≈ 22.9 µM)
- MBC (Shigella sonnei [8]): 16 µg/mL (≈ 45.8 µM)
- MIC (Staphylococcus aureus [9]): 0.5 µg/mL (≈ 1.43 µM)
- MBC (Staphylococcus aureus [9]): 1 µg/mL (≈ 2.86 µM)

Compound: CC[C@H]1OC(=O)[C@H](C)[C@@H](O[C@H]2C[C@@](C)(OC)[C@@H](O)[C@H](C)O2)[C@H](C)[C@@H](O[C@@H]2O[C@H](C)C[C@H](N(C)C)[C@H]2O)[C@](C)(O)C[C@@H](C)C(=O)[C@H](C)[C@@H](O)[C@]1(C)O [Erythromycin]
- Minimum inhibitory concentration of the antibiotic to L. pl 24-2L (L. pl 24-2L): 0.75 µg/mL
- Minimum inhibitory concentration of the antibiotic to L. plantarum 299 (L. plantarum 299): 0.75 µg/mL
- EFSA, MIC breakpoints species L. plantarum (species L. plantarum): 4 µg/mL
- MIC (Colony LP19): 2 µg/mL (≈ 2.73 µM)
- MIC (Colony PTA22): 4 µg/mL (≈ 5.45 µM)
- MIC (Colony LP1): 1 µg/mL (≈ 1.36 µM)
- MIC (Colony LP2): 2 µg/mL (≈ 2.73 µM)
- MIC (Colony LP5): 2 µg/mL (≈ 2.73 µM)
- Minimum inhibitory concentration of the antibiotic to L. pl 24-5D (L. pl 24-5D): 0.75 µg/mL
- Minimum inhibitory concentration of the antibiotic to L. plantarum 299v (L. plantarum 299v): 1 µg/mL

Compound: NC[C@H]1O[C@H](O[C@H]2[C@H](O)[C@@H](O[C@H]3O[C@H](CO)[C@@H](O)[C@H](N)[C@H]3O)[C@H](N)C[C@@H]2N)[C@H](O)[C@@H](O)[C@@H]1O [Kanamycin]
- MIC (Salmonella enterica [10]; 24 h, read-out: MIC, Salmonella Enterica): 64 µg/mL (≈ 132 µM)
- MBC (Salmonella enterica [10]; antibiotics, plated on nutrient agar 48-72 h): 128 µg/mL (≈ 264 µM)
- Minimum inhibitory concentration of the antibiotic to LP19 (Colony LP19; 96-well, 37 C 24 h, OD600): >256 µg/mL
- MIC (Colony LP19): > 256 µg/mL
- Minimum inhibitory concentration of the antibiotic to PTA22 (Colony PTA22; 96-well, 37 C 24 h, OD600): >256 µg/mL
- MIC (Colony PTA22): > 256 µg/mL
- Minimum inhibitory concentration of the antibiotic to LP1 (Colony LP1; 96-well, 37 C 24 h, OD600): >256 µg/mL
- MIC (Colony LP1): > 256 µg/mL
- Minimum inhibitory concentration of the antibiotic to LP2 (Colony LP2): >256 µg/mL
- MIC (Colony LP2): > 256 µg/mL
- Minimum inhibitory concentration of the antibiotic to LP5 (Colony LP5; 96-well, 37 C 24 h, OD600): >256 µg/mL
- MIC (Colony LP5): > 256 µg/mL
- Inhibitory zone, Klebsiella Pneumoniae (Klebsiella pneumoniae [1]): 20 mm
- Inhibitory zone, Shigella Sonnei (Shigella sonnei [2]): 20 mm
- Inhibitory zone, Salmonella Enterica (Salmonella enterica [3]): 16 mm
- Inhibitory zone, Staphylococcus Aureus (Staphylococcus aureus [11]): 23 mm
- Inhibitory zone, Bacillus Cereus (Bacillus cereus [4]): 20 mm
- Inhibitory zone, Escherichia coli (ETEC) (Escherichia coli (ETEC) [5]): 17 mm
- Inhibitory zone, Streptococcus Pneumoniae (Streptococcus pneumoniae [6]): 20 mm
- Inhibitory zone, Pseudomonas Aeruginosa (Pseudomonas aeruginosa [7]): 20 mm
- MIC (Klebsiella pneumoniae [12]; 37 C 24 h, OD600): 32 µg/mL (≈ 66 µM)
- MBC (Klebsiella pneumoniae [12]; [17]): 64 µg/mL (≈ 132 µM)
- MIC (Shigella sonnei [8]): 16 µg/mL (≈ 33 µM)
- MBC (Shigella sonnei [8]): 64 µg/mL (≈ 132 µM)
- MIC (Staphylococcus aureus [9]): 4 µg/mL (≈ 8.26 µM)
- MBC (Staphylococcus aureus [9]): 8 µg/mL (≈ 16.5 µM)
- MIC (Bacillus cereus [13]; 37 C 24 h, OD600): 256 µg/mL (≈ 528 µM)
- MBC (Bacillus cereus [13]; [17]): > 256 µg/mL
- MIC (Escherichia coli (ETEC) [14]; 37 C 24 h, OD600): 64 µg/mL (≈ 132 µM)
- MBC (Escherichia coli (ETEC) [14]; [17]): 128 µg/mL (≈ 264 µM)
- MIC (Streptococcus pneumoniae [15]; 37 C 24 h, OD600): 8 µg/mL (≈ 16.5 µM)
- MBC (Streptococcus pneumoniae [15]; [17]): 16 µg/mL (≈ 33 µM)
- MIC (Pseudomonas aeruginosa [16]; 37 C 24 h, OD600): 8 µg/mL (≈ 16.5 µM)
- MBC (Pseudomonas aeruginosa [16]; [17]): 16 µg/mL (≈ 33 µM)
